Measurements as given in article PMC4153893, “Synergetic cytotoxic activity toward breast cancer cells enhanced by the combination of Antp-TPR hybrid peptide targeting Hsp90 and Hsp70-targeted peptide” (BMC Cancer, 2014).
Ends that are not written are not given here.

How the values were obtained:
BT20 cells = test: Cell viability assay (WST-8); assay type: cell-based, human
Method: (§1) Cell viability was determined by WST-8 assay as described previously. Briefly, cells were seeded onto 96-well plates at 2000–3000 cells/well overnight. After incubating with the test peptides, the cell viability assay was carried out using Living Cell Count Reagent SF (Nacalai Tesque) according to the manufacturer’s protocol. Absorbance was measured at 450 nm using a 96-well microplate reader (GE Healthcare Bioscience, Piscataway, NJ).

MDA-MB-231 cells = test: Cell viability assay (WST-8); assay type: cell-based, human; settings: 24 h
Method: as §1

[1] = test system: BT20, MDA-MB-231, or MCF-10A cells; test: Cellular uptake by flow cytometry; assay type: cell-based, human; settings: BT20, MDA-MB-231, MCF-10A, Antp-TPR-TAMRA 10 μM, R11-Hsp70 or R11-Hsp70 scramble 10 μM, 30 min
Method: Flow cytometry assay was performed as described previously. […] The cell pellets were resuspended, and then flow cytometry analysis was performed by FACSCalibur (BD Bioscience, San Jose, CA, USA). Data were analyzed using CellQuest Software (BD Bioscience). Annexin V and PI staining was performed using Annexin V-Fluorescein Staining Kit (Wako Chemicals, Osaka, Japan) by multiparametric flow cytometry assay as described previously.

[2] = test system: normal mammary epithelial cells (MCF-10A); test: Cell viability assay (WST-8); assay type: cell-based, human; settings: 24 h, R11-Hsp70 10 μM where present, compared with cancer cell lines
Method: as §1

MDA-MB-361 cells = test: Cell viability assay (WST-8); assay type: cell-based, human; settings: 24 h, mean of three independent observations each performed in triplicate, read-out: IC50 of Antp-TPR
Method: as §1

BT474 cells = test: Cell viability assay (WST-8); assay type: cell-based, human; settings: 24 h, mean of three independent observations each performed in triplicate, read-out: IC50 of Antp-TPR
Method: as §1

[3] = test system: MDA-MB-231, BT20, BT474, and MDA-MB-361 cell lines; test: Cell viability assay (WST-8), summary over four breast cancer cell lines; assay type: cell-based, human; settings: MDA-MB-231, BT20, BT474, MDA-MB-361; summary of Table 1; read-out: IC50 values of Antp-TPR alone, range over four cell lines
Method: as §1

cancer cells = settings: in the presence of 2-phenylethynesulfonamide; cited from earlier work
Text: It was recently reported that VER155008 could bind to the ...

[4] = test system: Hsp70 / Hsp70 promoter in BT20 cells; test: Hsp70 expression (western blotting) and Hsp70 promoter activation (reporter assay, LV200 single-cell imaging); assay type: cell-based, human
Method: Western blotting was carried out as described previously. Briefly, protein extracts were prepared from cells lysed with reporter lysis buffer (Promega, Madison, WI, USA), separated by SDS-PAGE and transferred to nitrocellulose filters using the iBlot system (Invitrogen, Carlsbad, CA, USA) according to the manufacturer’s protocol. Quenched membranes were probed with antibodies and analyzed using an enhanced reagent of Chemi-Lumi One Super (Nacalai Tesque) with a LAS-3000 LuminoImage analyzer (Fujifilm, Tokyo, Japan). Densitometric analysis was performed by Multi Gauge software V3.0 (Fujifilm) using the bands obtained from western blotting, in which actin as the loading control was used for normalizing of each bands.
A reporter assay was carried out as described previously. […] The relative activity of firefly luciferase to Renilla luciferase activity was determined in triplicate (means ± SD) using the Dual-Glo Luciferase Assay System (Promega).
Stably transfected BT20 cells with pHsp70Pro-Luc were prepared after transient transfection with Lipofectamine LTX according to the manufacturer’s protocol in a selective medium containing 200 μg/ml hygromycine B (Nacalai Tesque). Luminescence images at the single-cell level were obtained using the LV200 luminescence imaging system (Olympus) as described previously. […]

## N#Cc1ccc(COC[C@H]2O[C@@H](n3c(NCc4ccc(Cl)c(Cl)c4)nc4c(N)ncnc43)[C@H](O)[C@@H]2O)cc1 [VER155008, reference compound]
BT20 cells; 5 μM VER155008, WST-8
  effect on the cytotoxic activity of 17-AAG: did not have any synergetic effect on the cytotoxic activity of 17-AAG
  effect on the cytotoxic activity of Antp-TPR: cytotoxic activity of Antp-TPR toward cancer cells was increased

## RRRRRRRRRRRGGGTPTYRASCFYHYK [R11-Hsp70scramble]
BT20 cells; R11-Hsp70scramble 10 μM, 24 h
  effect on the cytotoxic activity of Antp-TPR: no effective increase in the cytotoxic activity of Antp-TPR
MDA-MB-231 cells; R11-Hsp70scramble 10 μM
  effect on the cytotoxic activity of Antp-TPR: no effective increase in the cytotoxic activity of Antp-TPR

## RRRRRRRRRRRGGGYCAYYSPRHKTTF [R11-Hsp70]
BT20 cells; R11-Hsp70 10 μM, 24 h
  effect on the cytotoxic activity of 17-AAG: did not affect the cytotoxic activity of 17-AAG
[1]
  enhancement for cellular uptake of Antp-TPR: higher than that of Antp-TPR by R11-Hsp70 scramble peptide

## RQIKIWFQNRRMKWKKKAYARIGNSYFK [Antp-TPR]
[2]
  cytotoxic activity toward normal mammary epithelial cells: less than that of these peptides against cancer cell lines
MDA-MB-361 cells
  IC50: 33.8 ± 2.6 µM
BT20 cells; 24 h, WST-8, mean of three independent observations each performed in triplicate, read-out: IC50 of Antp-TPR
  IC50: 26.1 ± 3 µM
MDA-MB-231 cells; WST-8, mean of three independent observations each performed in triplicate, read-out: IC50 of Antp-TPR
  IC50: 31.2 ± 3 µM
BT474 cells
  IC50: 34.1 ± 2.7 µM
[3]
  IC50: 26 to 34 µM

## NS(=O)(=O)C#Cc1ccccc1 [2-phenylethynesulfonamide]
Cancer cells
  effect on the cytotoxic activity of 17-AAG: the cytotoxic activity of 17-AAG was increased

## C=CCNC1=C2C[C@@H](C)C[C@H](OC)[C@H](O)[C@@H](C)/C=C(\C)[C@H](OC(N)=O)[C@@H](OC)/C=C\C=C(/C)C(=O)NC(=CC1=O)C2=O [17-AAG, 17-allylamino-demethoxygeldanamycin]
[4]; BT20 cells with pHsp70Pro-Luc, Antp-TPR 20 μM, R11-Hsp70 10 μM, 17-AAG 0.5 μM, luminometer 18 h and LV200 single-cell imaging
  activation of the Hsp70 promoter: induced activation at the single-cell level
[4]; BT20 cells, 0.5 μM 17-AAG, 6 h or 18 h western blotting, promoter assay 18 h
  up-regulation of Hsp70 and the promoter activity of this protein: induced both
